In patent US20230091225A1, “Bifunctional chimeric heterocyclic compounds for targeted degradation of androgen receptors and use thereof” (HINOVA PHARMACEUTICALS INC., priority 2019, published 2023):
Read-outs that look alike come from different tables or passages of the source.

Molecular target: T1, androgen receptor (AR) (Homo sapiens, UniProt P10275)
T1 sequence (P10275 1-920): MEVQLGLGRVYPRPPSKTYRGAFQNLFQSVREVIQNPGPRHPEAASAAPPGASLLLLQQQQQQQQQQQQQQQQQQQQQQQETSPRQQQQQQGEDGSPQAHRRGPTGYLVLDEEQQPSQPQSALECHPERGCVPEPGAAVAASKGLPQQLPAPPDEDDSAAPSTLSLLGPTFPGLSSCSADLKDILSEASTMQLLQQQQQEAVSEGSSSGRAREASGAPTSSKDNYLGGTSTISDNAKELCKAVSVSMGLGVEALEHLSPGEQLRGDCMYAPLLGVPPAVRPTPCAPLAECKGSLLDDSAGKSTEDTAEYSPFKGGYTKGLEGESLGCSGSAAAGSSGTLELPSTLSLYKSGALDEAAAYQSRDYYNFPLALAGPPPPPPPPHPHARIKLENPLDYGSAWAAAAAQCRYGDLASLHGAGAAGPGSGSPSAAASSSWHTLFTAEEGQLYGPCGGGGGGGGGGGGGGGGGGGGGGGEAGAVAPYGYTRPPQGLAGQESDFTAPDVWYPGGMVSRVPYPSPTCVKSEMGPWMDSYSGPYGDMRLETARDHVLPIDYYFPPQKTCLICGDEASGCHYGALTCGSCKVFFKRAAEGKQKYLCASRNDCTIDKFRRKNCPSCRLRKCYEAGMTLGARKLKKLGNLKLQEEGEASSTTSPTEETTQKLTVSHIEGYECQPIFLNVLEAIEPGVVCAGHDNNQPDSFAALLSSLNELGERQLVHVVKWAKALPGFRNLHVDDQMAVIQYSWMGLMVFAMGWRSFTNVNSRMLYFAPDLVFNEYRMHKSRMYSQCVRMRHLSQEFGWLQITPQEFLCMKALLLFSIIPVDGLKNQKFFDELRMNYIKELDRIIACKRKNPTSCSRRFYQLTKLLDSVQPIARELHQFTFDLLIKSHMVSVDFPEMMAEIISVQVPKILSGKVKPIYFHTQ
Assay: Degradation of androgen receptor (AR) protein in VCaP cells by ELISA
Type: cell-based
Conditions: for Dmax: VCaP

[1] = AR degradation, VCaP cells, 16 h, ELISA, Table 3-1, read-out: DC50
[2] = AR degradation, VCaP cells, 16 h, ELISA, Table 3-1, read-out: Dmax (%)
[3] = AR degradation, VCaP cells, 16 h, ELISA, Table 3-2, read-out: DC50
[4] = AR degradation, VCaP cells, 16 h, ELISA, Table 3-2, read-out: Dmax (%)
[5] = AR degradation, VCaP cells, 16 h, ELISA, Table 3-1

| SMILES | DC50 [1] [nM] | Dmax [2] [%] | also measured |
| --- | --- | --- | --- |
| N#Cc1ccc(OC2CCC(NC(=O)c3cnc(N4CCC(CN5CC6(CCN(c7cc8c(cc7F)C(=O)N(C7CCC(=O)NC7=O)C8=O)CC6)C5)CC4)cn3)CC2)cc1Cl (stereo not drawn) [Compound 234, N-((1r,4r)-4-(3-chloro-4-cyanophenoxy)cyclohexyl)-5-(4-((7-(2,6-dioxopiperidin-3-yl)-6-fluoro-1,3-dioxoisoindolin-5-yl)-2,7-diazaspiro[3.5]nonan-2-yl)methyl)piperidin-1-yl)pyrazine-2-carboxamide] | < 10 | > 80 | – |
| C[C@H]1CN(C[C@@H]2[C@H]3CN(c4cc5c(cc4F)C(=O)N(C4CCC(=O)NC4=O)C5=O)C[C@@H]23)CCN1c1ccc(C(=O)N[C@H]2CC[C@H](Oc3ccc(C#N)c(Cl)c3)CC2)nn1 (stereo partly drawn) [Compound 170] | < 10 | > 80 | – |
| CC1(C)[C@H](Oc2ccc(C#N)c(Cl)c2)C(C)(C)[C@H]1N1Cc2nc(C#C[C@H]3C[C@H](N4CCN(c5cnn(C6CCC(=O)NC6=O)c(=O)c5)CC4)C3)ccc2C1=O (stereo partly drawn) [Compound 394] | – | – | DC50 [3]: 10 to 100 nM; Dmax [4]: 60 to 80% |
| N#Cc1ccc(O[C@H]2CC[C@H](NC(=O)c3cnn([C@H]4CC[C@H](CN5CCC6(CC5)CN(c5ccc7c(c5)C(=O)N(C5CCC(=O)NC5=O)C7=O)C6)CC4)c3)CC2)cc1Cl (stereo partly drawn) [Compound 245] | 10 to 100 | – | Dmax: 60 to 80% |
| N#Cc1ccc(O[C@H]2CC[C@H](NC(=O)c3cnn([C@H]4CC[C@H](CN5CCC6(CC5)CN(c5ccc7c(c5)C(=O)N(C5CCC(=O)NC5=O)C7=O)C6)CC4)n3)CC2)cc1Cl (stereo partly drawn) [Compound 116, N-((1r,4R)-4-(3-chloro-4-cyanophenoxy)cyclohexyl)-2-((1r,4R)-4-((2-(2-(2,6-dioxopiperidin-3-yl)-1,3-dioxoisoindolin-5-yl)-2,7-diazaspiro[3.5]nonan-7-yl)methyl)cyclohexyl)-2H-1,2,3-triazole-4-carboxamide] | < 10 | > 80 | – |
| CC(=O)O[C@@H]1C[C@H](C(=O)NC2(c3ccc(-c4scnc4C)cc3)CC2)N(C(=O)[C@@H](NC(=O)COCCCCC#Cc2ccc(C(=O)N[C@H]3C(C)(C)[C@H](Oc4ccc(C#N)c(Br)c4)C3(C)C)cc2)C(C)(C)C)C1 [Compound 8, (3R,5R)-1-((S)-2-(2-((6-(4-(((1R,3R)-3-(3-bromo-4-cyanophenoxy)-2,2,4,4-tetramethylcyclobutyl)carbamoyl)phenyl)hex-5-yn-1-yl)oxy)acetylamino)-3,3-dimethylbutyryl)-5-((1-(4-(4-methylthiazol-5-yl)phenyl)cyclopropyl)carbamoyl) pyrrolidin-3-yl acetate] | – | – | inhibition at 0.1 µM (percentage of degraded AR at 100 nM, VCaP cells, 16 h, ELISA, read-out: % degradation): 25 to 49% |
| CC1(C)[C@H](Oc2ccc(C#N)c(Br)c2)C(C)(C)[C@H]1N1Cc2nc(C#C[C@H]3CC[C@H](N4CCN(c5ccc6c(c5)C(=O)N(C5CCC(=O)NC5=O)C6=O)CC4)CC3)ccc2C1=O (stereo partly drawn) [Compound 398] | – | – | DC50 [3]: 10 to 100 nM; Dmax [4]: > 80% |
| N#Cc1ccc(OC2CCC(NC(=O)c3ncn(C4CCC(CN5CCC6(CC5)CN(c5cc7c(cc5F)C(=O)N(C5CCC(=O)NC5=O)C7=O)C6)CC4)n3)CC2)cc1Cl [Compound 85, N-((1r,4R)-4-(3-chloro-4-cyanophenoxy)cyclohexyl)-1-((1r,4R)-4-((2-(2,6-dioxopiperidin-3-yl)-6-fluoro-1,3-dioxoisoindolin-5-yl)-2,7-diazaspiro[3.5]nonan-7-yl)methyl)cyclohexyl)-1H-1,2,4-triazole-3-formamide] | 10 to 100 | – | Dmax (%) [5]: ++++ (>80%) |
| N#Cc1ccc(O[C@H]2CC[C@H](NC(=O)c3ccc(N4CC5(CC(N6CCN(c7cc8c(cc7F)C(=O)N(C7CCC(=O)NC7=O)C8=O)CC6)C5)C4)nn3)CC2)cc1Cl (stereo partly drawn) [Compound 129, N-((1r,4r)-4-(3-chloro-4-cyanophenoxy)cyclohexyl)-6-(6-(4-(2-(2,6-dioxopiperidin-3-yl)-6-fluoro-1,3-dioxoisoindolin-5-yl)piperazin-1-yl)-2-azaspiro[3.3]heptan-2-yl)pyridazine-3-amide] | < 10 | > 80 | – |
| CC1(C)C(NC(=O)c2ccc(N3CCC(N4CC5(CCN(c6cc7c(cc6F)C(=O)N(C6CCC(=O)NC6=O)C7=O)CC5)C4)CC3)nn2)C(C)(C)C1Oc1ccc(C#N)c(Cl)c1 (stereo not drawn) [Compound 80, N-((1s,3s)-3-(3-chloro-4-cyanophenoxy)-2,2,4,4-tetramethylcyclobutyl)-6-(4-(7-(2-(2,6-dioxopiperidin-3-yl)-6-fluoro-1,3-dioxoisoindolin-5-yl)-2,7-diazaspiro [3.5]nonan-2-yl)piperidin-1-yl)pyridazine-3-formamide] | – | – | Dmax (%): +++ (key: ++++: >80%; +++: 80%-60%; ++: 60%-40%; +: <40%); DC50 (read-out: DC50): 10 to 100 nM |
| N#Cc1ccc(O[C@H]2CC[C@H](NC(=O)c3ccc(N4C[C@H]5CC[C@@H](C4)N5C[C@H]4[C@@H]5CN(c6cc7c(cc6F)C(=O)N(C6CCC(=O)NC6=O)C7=O)C[C@@H]54)nn3)CC2)cc1Cl (stereo partly drawn) [Compound 239] | – | – | DC50: 10 to 100 nM; Dmax: 60 to 80% |
| CC1(C)C(Oc2ccc(C#N)c(Cl)c2)C(C)(C)C1N1Cc2nc(C#CC3CCC(N4CC5CN(c6ccc7c(c6)C(=O)N([C@@H]6CCC(=O)NC6=O)C7=O)CC5C4)CC3)ccc2C1=O (stereo partly drawn) [Compound 349, 2-Chloro-4-((1r,3r)-3-(2-((4-(5-(2-(2,6-dioxopiperidin-3-yl)-1,3-dioxoisoindolin-5-yl)hexahydropyrrolo[3,4-c]pyrrol-2(1H)-yl)cyclohexyl)ethynyl)-5-oxo-5,7-dihydro-6H-pyrrolo[3,4-b]pyridin-6-yl)-2,2,4,4-tetramethylcyclobutoxy)benzonitrile] | – | – | Dmax (%) [5]: ++++ (>80%); DC50 (read-out: DC50): 10 to 100 nM |

Continued, in another order:

| DC50 [1] [nM] | Dmax [2] [%] | SMILES | also measured |
| --- | --- | --- | --- |
| 100 to 300 | 40 to 60 | N#Cc1ccc(O[C@H]2CC[C@H](NC(=O)c3ccc(N4CC5CC4CN5C[C@H]4[C@@H]5CN(c6cc7c(cc6F)C(=O)N(C6CCC(=O)NC6=O)C7=O)C[C@@H]54)nn3)CC2)cc1Cl (stereo partly drawn) [Compound 237] | – |
| < 10 | > 80 | N#Cc1ccc(O[C@H]2CC[C@H](NC(=O)c3cnc(N4CC5CN(CC6CCN(c7cc8c(cc7F)C(=O)N(C7CCC(=O)NC7=O)C8=O)CC6)CC5C4)nc3)CC2)cc1Cl (stereo partly drawn) [Compound 272] | – |
| < 10 | > 80 | CC1(C)[C@H](Oc2ccc(C#N)c(Cl)c2)C(C)(C)[C@H]1N1Cc2nc(C#CC3CCC(N4CCC5(CN(c6cc7c(cc6F)C(=O)N(C6CCC(=O)NC6=O)C7=O)C5)C4)CC3)ccc2C1=O (stereo partly drawn) [Compound 374] | – |
| < 10 | 60 to 80 | CC1(C)[C@H](Oc2ccc(C#N)c(Cl)c2)C(C)(C)[C@H]1N1Cc2nc(C#CC3CN(C4CN(c5cc6c(cc5F)C(=O)N(C5CCC(=O)NC5=O)C6=O)C4)C3)ccc2C1=O (stereo partly drawn) [Compound 322] | – |
| 10 to 100 | > 80 | N#Cc1ccc(O[C@H]2CC[C@H](NC(=O)c3cnc(N4CCC(N5CCC6(CC5)CN(c5ccc7c(c5)C(=O)N(C5CCC(=O)NC5=O)C7=O)C6)CC4)cn3)CC2)cc1Cl (stereo partly drawn) [Compound 280, N-((1r,4r)-4-(3-chloro-4-cyanophenoxy)cyclohexyl)-5-(4-(2-(2-(2,6-dioxopiperidin-3-yl)-1,3-dioxoisoindolin-5-yl)-2,7-diazaspiro[3.5]nonan-7-yl)piperidin-1-yl)pyrazine-2-carboxamide] | – |
